Assay results reported in patent publication US20230174523A1, “BENZENESULFONAMIDE DERIVATIVES AS TRAP1 MODULATORS AND USES THEREOF” (Amathus Therapeutics, Inc., priority 2020, published 2023).
pEC50: −log10 of the molar value.

Legend:
[1] = tested on: primary rat TH+ dopaminergic neurons; assay: ROS production in primary TH+ dopaminergic neurons injured with MPP+; assay type: cell-based; conditions: injury with MPP+ (4 μM, 4 h); FIG. 6
Procedure: (§1) Rat dopaminergic neurons were cultured as described by Visanji et al., 2008. Briefly, pregnant female rat of 15 days of gestation are sacrificed using a deep anesthesia with CO2 chamber and a cervical dislocation. The midbrains obtained from 15-day-old rat embryos are dissected under a microscope. The embryonic midbrains are removed and placed in ice-cold medium of Leibovitz (L15) containing 2% of Penicillin-Streptomycin (PS) and 1% of bovine serum albumin (BSA). The ventral portion of the mesencephalic flexure, a region of the developing brain rich in dopaminergic neurons, is used for the cell preparations.
The midbrains are dissociated by trypsinisation for 20 min at 37° C. (solution at a final concentration of 0.05% trypsin and 0.02% EDTA). […] Viable cells are counted in a Neubauer cytometer using the trypan blue exclusion test. […] Six wells per condition are assessed. […]
(§2) For each condition, 20 pictures at 10× magnification (plate 1) or 30 pictures at 20× magnification (representing the whole well area) were automatically taken using ImageXpress®. […] The following read-outs were measured: Analysis of total number of TH neurons (TH positive neuron number), Analysis of the ROS into TH positive neurons, Analysis of caspase 3 positive TH neurons, and Analysis of total neurite network of TH positive neurons (in μm).
(§3) All values are expressed as mean+/−SEM (standard error of the mean). […]

[2] = target: T1, TRAP1 enzyme (Homo sapiens, UniProt Q12931); assay: ADP Glo assay of TRAP1 ATPase activity; assay type: biochemical
T1 sequence (Q12931 60-704): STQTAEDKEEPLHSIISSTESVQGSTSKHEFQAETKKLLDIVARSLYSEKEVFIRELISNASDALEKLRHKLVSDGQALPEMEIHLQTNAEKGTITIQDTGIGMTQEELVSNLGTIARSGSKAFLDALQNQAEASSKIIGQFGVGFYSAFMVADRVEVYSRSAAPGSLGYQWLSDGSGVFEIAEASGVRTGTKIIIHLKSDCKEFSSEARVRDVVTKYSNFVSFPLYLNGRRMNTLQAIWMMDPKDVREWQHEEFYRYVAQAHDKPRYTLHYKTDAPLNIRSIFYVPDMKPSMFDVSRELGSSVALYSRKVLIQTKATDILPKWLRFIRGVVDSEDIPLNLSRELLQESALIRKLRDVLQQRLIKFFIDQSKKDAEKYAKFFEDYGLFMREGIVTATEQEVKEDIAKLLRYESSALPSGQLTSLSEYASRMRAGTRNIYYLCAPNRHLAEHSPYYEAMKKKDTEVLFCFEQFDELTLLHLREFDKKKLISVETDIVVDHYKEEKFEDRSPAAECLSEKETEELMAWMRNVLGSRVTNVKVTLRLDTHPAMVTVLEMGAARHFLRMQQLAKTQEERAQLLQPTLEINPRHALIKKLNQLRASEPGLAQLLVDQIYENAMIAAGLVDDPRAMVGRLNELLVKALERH
Method in brief: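 150 nM TRAP1 preincubated with compound (0.79–100 μM) 30 min at 37° C in Pipes pH 7.5 buffer (0.05 mM MgCl2, 40 mM KCl), then 20 μM ATP added for 60 min at 37° C. ADP quantified by ADP-Glo luminescence against ATP/ADP standard curve. Emax and EC50 from sigmoidal fit.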

[3] = tested on: primary rat TH+ dopaminergic neurons; assay: Survival, neurite network, CytC release and aSyn aggregation of TH+ dopaminergic neurons injured with MPP+; assay type: cell-based
Procedure: as §1
The midbrains are dissociated by trypsinisation for 20 min at 37° C. (solution at a final concentration of 0.05% trypsin and 0.02% EDTA). […] Viable cells are counted in a Neubauer cytometer using the trypan blue exclusion test. […] Six wells per condition are assessed.
as §2, §3

- pEC50 ([2]; TRAP1 ATPase activation, 150 nM Trap1, 20 μM ATP, geometric mean, read-out: ADP GLO DRC: GeoMean EC50): 4.70 to 5.00
- Emax ([2]; read-out: ADP GLO DRC: Mean Emax): 160 to 199%
SMILES: Cc1nn(C)c2sc(C(=O)Nc3ccc(F)c(S(=O)(=O)Nc4ccc(Cl)cc4)c3)cc12 [Compound 705]
- reactive oxygen species (ROS) production [1]: reduction of ROS
- neurite network of TH+ dopaminergic neurons ([3]; injury with MPP+ (4 μM, 24 h), FIG. 8): protection of the neurite network
- neurite network of TH+ dopaminergic neurons ([3]; injury with MPP+ (4 μM, 48 h), FIG. 11): protection of neurite network
